Literature values in patent US4307083A, “LRF Antagonists” (The Salk Institute for Biological Studies, priority 1980, dated 1981).
Non-standard residues stand in square brackets, D forms with d. pGlu = O=C1CC[C@@H](C(=O)O)N1

System: release of gonadotropins
Details: versus des-His2 peptide with Gly instead of D-Ala at position 6

In the case of [pGlu]WSY[dA]LRPG-NH2, the “Potency as inhibitor of gonadotropin release relative to the same peptide with Gly in the 6-position” value is given as 3 times.
